Source: patent US9221809B2 (MERCK SHARP & DOHME CORP., priority 2011, dated 2015)
Counter-ions that a name gives are not always drawn.

target: IRAK4 (Homo sapiens (Human), UniProt Q9NWZ3); experiment: IRAK4 kinase activity, IMAP fluorescence polarization assay; type: biochemical; details: 100 μM ATP, 0.5 nM GST tagged IRAK4; read-out: IRAK4 IC50
In short: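 GST-tagged IRAK4 at 0.5 nM phosphorylates 100 nM fluorescent peptide substrate with 100 μM ATP in pH 7.2 Tris buffer containing MgCl2, DTT and Tween 20, 30 min at 25 °C. Reaction stopped with IMAP binding reagent; phosphorylation read as increased fluorescence polarization.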

Chain of IRAK4 (Q9NWZ3 whole entry): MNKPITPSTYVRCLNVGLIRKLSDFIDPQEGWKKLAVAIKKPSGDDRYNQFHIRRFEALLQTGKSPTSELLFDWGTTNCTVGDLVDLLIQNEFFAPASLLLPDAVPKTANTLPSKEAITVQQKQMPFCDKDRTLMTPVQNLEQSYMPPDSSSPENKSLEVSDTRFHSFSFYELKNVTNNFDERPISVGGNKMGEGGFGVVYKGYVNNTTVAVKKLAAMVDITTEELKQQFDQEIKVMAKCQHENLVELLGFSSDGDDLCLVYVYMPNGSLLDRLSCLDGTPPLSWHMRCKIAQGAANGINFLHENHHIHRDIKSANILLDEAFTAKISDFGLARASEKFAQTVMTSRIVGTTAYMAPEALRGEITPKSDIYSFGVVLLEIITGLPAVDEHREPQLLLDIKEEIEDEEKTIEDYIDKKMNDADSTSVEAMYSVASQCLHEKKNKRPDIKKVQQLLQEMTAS

IC50 | SMILES
0.012 µM | O=c1[nH]c(N2CCOCC2)nc(N[C@@H]2CCCNC2)c1-c1nc2cnccc2s1 [Example 113, (R)-2-morpholino-6-(piperidin-3-ylamino)-5-(thiazolo[4,5-c]pyridin-2-yl)pyrimidin-4(3H)-one.HCl]
0.024 µM | O=c1[nH]c(N2CCCC2)nc(N[C@@H]2CCCNC2)c1-c1ccc2ccccc2n1 [Example 114, (R)-6-(piperidin-3-ylamino)-2-(pyrrolidin-1-yl)-5-(quinolin-2-yl)pyrimidin-4(3H)-one.HCl]
0.054 µM | O=c1[nH]c(N2CCCCC2)nc(N[C@@H]2CCCNC2)c1-c1ccc2ccccc2n1 [Example 115, (R)-2-(piperidin-1-yl)-6-(piperidin-3-ylamino)-5-(quinolin-2-yl)pyrimidin-4(3H)-one.HCl]
0.097 µM | CN1CCN(c2nc(N[C@@H]3CCCNC3)c(-c3ccc4ccccc4n3)c(=O)[nH]2)CC1 [Example 116, (R)-2-(4-methylpiperazin-1-yl)-6-(piperidin-3-ylamino)-5-(quinolin-2-yl)pyrimidin-4(3H)-one.HCl]
0.0086 µM | O=c1[nH]c(N2CCCCC2)nc(N[C@@H]2CCCNC2)c1-c1nc2c(C3CC3)nccc2s1 [Example 117, (R)-5-(4-cyclopropylthiazolo[4,5-c]pyridin-2-yl)-2-(piperidin-1-yl)-6-(piperidin-3-ylamino)pyrimidin-4(3H)-one.HCl]
0.014 µM | O=c1[nH]c(N2CCCC2)nc(N[C@@H]2CCCNC2)c1-c1nc2c(C3CC3)nccc2s1 [Example 118, (R)-5-(4-cyclopropylthiazolo[4,5-c]pyridin-2-yl)-6-(piperidin-3-ylamino)-2-(pyrrolidin-1-yl)pyrimidin-4(3H)-one.HCl]
0.03 µM | CN1CCN(c2nc(N[C@@H]3CCCNC3)c(-c3nc4c(C5CC5)nccc4s3)c(=O)[nH]2)CC1 [Example 120, (R)-5-(4-cyclopropylthiazolo[4,5-c]pyridin-2-yl)-2-(4-methylpiperazin-1-yl)-6-(piperidin-3-ylamino)pyrimidin-4(3H)-one.HCl]

same assay, conditions: 100 μM ATP; read-out: IRAK4 IC50

IC50 | SMILES
0.864 µM | O=c1[nH]c(N2CCOCC2CO)nc(N[C@@H]2CCCNC2)c1-c1nc2ccccc2s1 (stereo partly drawn) [Example 125, 5-(benzo[d]thiazol-2-yl)-2-(3-(hydroxymethyl)morpholino)-6-((R)-piperidin-3-ylamino)pyrimidin-4(3H)-one]
0.097 µM | CC1CN(c2nc(N[C@@H]3CCCNC3)c(-c3nc4ccccc4s3)c(=O)[nH]2)CCO1 (stereo partly drawn) [Example 126, 5-(benzo[d]thiazol-2-yl)-2-(2-methylmorpholino)-6-((R)-piperidin-3-ylamino)pyrimidin-4(3H)-one]
1.69 µM | C[C@@H]1COCCN1c1nc(N[C@@H]2CCCNC2)c(-c2nc3ccccc3s2)c(=O)[nH]1 [Example 127]
0.431 µM | C[C@H]1COCCN1c1nc(N[C@@H]2CCCNC2)c(-c2nc3ccccc3s2)c(=O)[nH]1 [Example 128]
0.057 µM | O=c1[nH]c(N2CCOC(CCO)C2)nc(N[C@@H]2CCCNC2)c1-c1nc2ccccc2s1 (stereo partly drawn) [Example 129, 5-(benzo[d]thiazol-2-yl)-2-(2-(2-hydroxyethyl)morpholino)-6-((R)-piperidin-3-ylamino)pyrimidin-4(3H)-one]
0.201 µM | O=c1[nH]c(N2CCOC(C(F)(F)F)C2)nc(N[C@@H]2CCCNC2)c1-c1nc2ccccc2s1 (stereo partly drawn) [Example 130, 5-(benzo[d]thiazol-2-yl)-6-((R)-piperidin-3-ylamino)-2-(2-(trifluoromethyl)morpholino)pyrimidin-4(3H)-one]
0.145 µM | CC1(C)CN(c2nc(N[C@@H]3CCCNC3)c(-c3nc4ccccc4s3)c(=O)[nH]2)CCO1 [Example 131, (R)-5-(benzo[d]thiazol-2-yl)-2-(2,2-dimethylmorpholino)-6-(piperidin-3-ylamino)pyrimidin-4(3H)-one]
0.008 µM | O=c1[nH]c(N2CCN(c3ccccn3)CC2)nc(N[C@@H]2CCCNC2)c1-c1nc2ccccc2s1 [Example 132, (R)-5-(benzo[d]thiazol-2-yl)-6-(piperidin-3-ylamino)-2-(4-(pyridin-2-yl)piperazin-1-yl)pyrimidin-4(3H)-one]
